# Laboratory results: patent US20060241067A1, “Methods For inhibiting angiogenesis, cell migration, cell adhesion, and cell survival” (priority 2002, published 2006)
# Experiments:
# [1] = test system: bFGF-stimulated angiogenesis in the mouse; experiment: Murine matrigel angiogenesis assay; assay type: in vivo, nude mice; conditions: bFGF matrigel with peptide, subcutaneous
# [2] = test system: chick chorioallantoic membrane (CAM); experiment: Chick chorioallantoic membrane (CAM) angiogenesis assay; assay type: in vivo, chicken; conditions: bFGF stimulated CAMs
# [3] = test system: Human umbilical vein endothelial cells (HUVEC); experiment: Endothelial cell migration assay (transwell) on ECM substrates; assay type: cell-based
# Protocol: Human umbilical vein endothelial cells (HUVEC) were grown in Endothelial Growth Medium (containing 2% fetal bovine serum, bFGF and VEGF) (Clonetics, San Diego, Calif.). To render HUVECs quiescent for Rac and/or Rho assays, monolayers of endothelial cells were incubated for 18 hrs in Endothelial Basal Medium supplemented with 0.1% serum (Clonetics). Cell migration and adhesion assays on ECM substrates were performed as previously described in Kim et al. (S. Kim et al., Amer. J. Biol. Chem., 275:33920-33928 (2000); and S. Kim et al., Amer. J. Path., 156:1345-1362 (2000)).
# Migration assays were performed essentially as described (Kim, et. al., 2000). […] HUVECS (25,000) were added to the upper chamber of inserts in migration buffer (Hepes buffered M199 medium containing 1% BSA, 2 mM MgCl2, 2 mM CaCl2 and 0.2 mM MnCl2) containing 25 μg/ml of various antibodies. In some experiments, 250 μM dibutyryl cAMP was placed in the upper and lower chambers of the transwell. Cells were allowed to migrate from the upper to the lower chamber for four hours at 37° C. The number of cells which had migrated were counted in three representative high power (200×) fields per insert. The data are presented as number of cells migrating+/−standard error of the mean. Migration assays were similarly performed on transfected cells. In this case, migrated transfected cells were identified by fluorescent microscopy and counted.
substance,measurement,setting,value
AVSEHQLLHS/D [PTHrP 1-10],angiogenesis in matrigel plugs (fluorescence intensity of lectin),[1],effective in inhibiting angiogenesis in a mouse model of angiogenesis
same,effectiveness at inhibiting angiogenesis relative to PTHrP 1-34,[2]; 1 μM,slightly less effective
same,"angiogenesis (blood vessel branch points, vessel density)",[2]; 1 μM peptide,effective in inhibiting angiogenesis in the CAM assay
same,endothelial cell migration on vitronectin,[3]; 1 μM peptide,similarly effective in inhibiting cell migration on vitronectin
same,maximum inhibition of cell migration,[3]; at a concentration of 10 μM,50%
